The values that follow come from patent US11274100B2, “EP300/CREBBP inhibitor” (Daiichi Sankyo Company, Limited, priority 2017, dated 2022).

In one assay the test system is TE-8 cells. Nature of the assay: Cell growth inhibitory activity, TE-8 cells (Test Example 3). To be noted: Homo sapiens, 72 h, cultured for 3 days, CellTiter-Glo. Format: cell-based. How it is done: (§1) [Test Example 3] Evaluation of Cell Growth Inhibitory Activity
(§2) As a culture medium for each cell, a 10% FBS supplemented RPMI 1640 medium (for LK2 cells and TE-8 cells derived from human esophageal cancer) was used. LK2 cells were purchased from Human Science Research Resources Bank, and TE-8 cells were purchased from Riken Cell Bank. The compound of each of Examples 1 to 108b was prepared by dilution with Freedom EVO 150 (Tecan Trading AG) (4-fold diluted, 10 stages, 10 mM to 38 nM). The resultant was added to respective wells of a 384-well plate in an amount of 40 nL/well using Echo 555 (Labcyte Inc.). The LK2 or TE-8 cells were seeded in the plate at 400 cells/40 μL/well (day 0), and were cultured for 3 days. On the day of addition of the compound (day 0) and 3 days after the addition of the compound (day 3), an ATP measurement reagent of CellTiter-Glo (registered trademark) 2.0 Assay (Promega Corporation, #G9242) was added to each well in an amount of 10 μL/well, and the amount of luminescence of each well was measured using EnVision. Based on the amount of luminescence (C0) on the day of the addition of the compound, and the amounts of luminescence of a compound non-addition group (C3) and a compound addition group (T3) obtained after the 3-day culture of the compound, a cell survival rate was calculated in accordance with the following expression: Cell survival rate (%)=(T3−C0)/(C3−C0)×100
(§3) A concentration (GI50 value) of each compound at which the growth of the TE-8 or LK-2 cells was inhibited by 50% was calculated by semilogarithmically plotting the cell survival rate at each concentration and the compound concentration.
Background: ATP-based viability assays read luminescence as a measure of living cells.

In the next assay the target is EP300 (Homo sapiens, UniProt Q09472). The experiment in a line: Histone acetyltransferase inhibitory activity against EP300 (Test Example 1). Format: biochemical. To be noted: 50 ng/mL EP300, 2 μM Acetyl-CoA, 100 nM Histone H4(1-25)-GSGSK (Biotin), 28° C. for 1 hour. The method, then: (§4) [Test Example 1] Evaluation of Histone
(§5) Acetyltransferase Inhibitory Activity against EP300 and CREBBP
(§6) 10 μL each of reaction solutions each containing a different concentration of the compound of each of Examples 1 to 108b (50 mM Tris-HCl (pH8.0), 0.1 mM EDTA, 1 mM dithiothreitol, 0.01% Tween-20, 0.01% Bovine serum albumin, 330 nM trichostatin A, 2 μM Acetyl-CoA (Sigma-Aldrich, #A2056), 100 nM Histone H4(1-25)-GSGSK (Biotin) (Anaspec, #65242-1), 1% dimethyl sulfoxide, 10 to 0.0006 μM of each compound, 50 ng/mL EP300 or 125 ng/mL CREBBP) was added to respective wells of a 384-well plate, and cultured at 28° C. for 1 hour. Thereafter, 5 μL of 30 μM Lys-CoA (Daiichi Sankyo Co., Ltd.) dissolved in LANCE detection buffer (Perkin Elmer Co., Ltd., #CR97-100) was added to each well. Furthermore, 5 μL of LANCE detection buffer containing 2 nM Eu-anti pan-Ac (Perkin Elmer Co., Ltd., #TRF0412) and 50 nM Sta-Ulight (Perkin Elmer Co., Ltd., #TRF0102) was added to each well, and the resultant was cultured at room temperature overnight. EnVision (Perkin Elmer Co., Ltd., Model 2104-0020) was used to measure ULight signals. […] EP300 and CREBBP were produced and purified by Daiichi Sankyo RD Novare Co., Ltd.

In a further assay the test system is LK2 cells. The experiment in a line: Cell growth inhibitory activity, LK2 cells (Test Example 3). The assay is classed as cell-based. The note with it: Homo sapiens, LK-2, 72 h, cultured for 3 days, CellTiter-Glo. The method, then: as §1, §2, §3
The target of the next assay is CREBBP (Homo sapiens, UniProt Q92793). Nature of the assay: Histone acetyltransferase inhibitory activity against CREBBP (Test Example 1). To be noted: 125 ng/mL CREBBP, 2 μM Acetyl-CoA, 100 nM Histone H4(1-25)-GSGSK (Biotin), 28° C. for 1 hour. The assay is classed as biochemical. How it is done: as §4, §5, §6
Another assay concerns H3K27Ac. Nature of the assay: Intracellular H3K27Ac inhibitory activity in LK2 cells (Test Example 2). Format: cell-based. To be noted: Homo sapiens, LK-2, cultured with compound for 3 hours, read-out: Test Example 2 H3K27Ac Inhibition (LK2) IC50. How it is done: [Test Example 2] Evaluation of Intracellular H3K27Ac Inhibitory Activity
LK2 cells derived from human squamous cell lung cancer were seeded in a 96 well plate at 40000 cells/100 μL/well, and were cultured overnight at 37° C. in 5% CO2. The LK2 cells were purchased from Human Science Research Resources Bank. […] The supernatant was discarded, 4% paraformaldehyde was added thereto at 100 μL/well, and the resultant was allowed to stand still at room temperature for 15 minutes. The 4% paraformaldehyde was discarded, and the resultant was washed with PBS-T. A quenching buffer (PBS-T containing 1% H2O2) was added thereto at of 100 μL/well, and the resultant was allowed to stand still at room temperature for 10 minutes. The resultant was washed with PBS-T, a blocking buffer (StartingBlocK T20 (TBS) Blocking Buffer (Thermo […], #37543)) was added thereto at 200 μL/well, and the resultant was allowed to stand still at room temperature for 1 hour. The supernatant was discarded, Acetyl-Histone H3 (Lys27) (D5E4) XP (registered trademark) Rabbit mAb (cell Signaling, #8173) diluted with a blocking buffer was added thereto at 50 μL/well, and the resultant was allowed to stand still at 4° C. overnight. The resultant was washed with PBS-T, Anti-Rabbit IgG-HRP (Cell Signaling, #7074S) diluted with a blocking buffer was added thereto at 50 μL/well, and the resultant was cultured at room temperature for 1 hour. The resultant was washed with PBS-T, SuperSignal (registered trademark) ELISA Pico Chemiluminescent Substrate (Thermo […], #37069) was added thereto at 50 μL/well, and a signal was measured using EnVision.

EP300, sequence (Q09472 whole entry): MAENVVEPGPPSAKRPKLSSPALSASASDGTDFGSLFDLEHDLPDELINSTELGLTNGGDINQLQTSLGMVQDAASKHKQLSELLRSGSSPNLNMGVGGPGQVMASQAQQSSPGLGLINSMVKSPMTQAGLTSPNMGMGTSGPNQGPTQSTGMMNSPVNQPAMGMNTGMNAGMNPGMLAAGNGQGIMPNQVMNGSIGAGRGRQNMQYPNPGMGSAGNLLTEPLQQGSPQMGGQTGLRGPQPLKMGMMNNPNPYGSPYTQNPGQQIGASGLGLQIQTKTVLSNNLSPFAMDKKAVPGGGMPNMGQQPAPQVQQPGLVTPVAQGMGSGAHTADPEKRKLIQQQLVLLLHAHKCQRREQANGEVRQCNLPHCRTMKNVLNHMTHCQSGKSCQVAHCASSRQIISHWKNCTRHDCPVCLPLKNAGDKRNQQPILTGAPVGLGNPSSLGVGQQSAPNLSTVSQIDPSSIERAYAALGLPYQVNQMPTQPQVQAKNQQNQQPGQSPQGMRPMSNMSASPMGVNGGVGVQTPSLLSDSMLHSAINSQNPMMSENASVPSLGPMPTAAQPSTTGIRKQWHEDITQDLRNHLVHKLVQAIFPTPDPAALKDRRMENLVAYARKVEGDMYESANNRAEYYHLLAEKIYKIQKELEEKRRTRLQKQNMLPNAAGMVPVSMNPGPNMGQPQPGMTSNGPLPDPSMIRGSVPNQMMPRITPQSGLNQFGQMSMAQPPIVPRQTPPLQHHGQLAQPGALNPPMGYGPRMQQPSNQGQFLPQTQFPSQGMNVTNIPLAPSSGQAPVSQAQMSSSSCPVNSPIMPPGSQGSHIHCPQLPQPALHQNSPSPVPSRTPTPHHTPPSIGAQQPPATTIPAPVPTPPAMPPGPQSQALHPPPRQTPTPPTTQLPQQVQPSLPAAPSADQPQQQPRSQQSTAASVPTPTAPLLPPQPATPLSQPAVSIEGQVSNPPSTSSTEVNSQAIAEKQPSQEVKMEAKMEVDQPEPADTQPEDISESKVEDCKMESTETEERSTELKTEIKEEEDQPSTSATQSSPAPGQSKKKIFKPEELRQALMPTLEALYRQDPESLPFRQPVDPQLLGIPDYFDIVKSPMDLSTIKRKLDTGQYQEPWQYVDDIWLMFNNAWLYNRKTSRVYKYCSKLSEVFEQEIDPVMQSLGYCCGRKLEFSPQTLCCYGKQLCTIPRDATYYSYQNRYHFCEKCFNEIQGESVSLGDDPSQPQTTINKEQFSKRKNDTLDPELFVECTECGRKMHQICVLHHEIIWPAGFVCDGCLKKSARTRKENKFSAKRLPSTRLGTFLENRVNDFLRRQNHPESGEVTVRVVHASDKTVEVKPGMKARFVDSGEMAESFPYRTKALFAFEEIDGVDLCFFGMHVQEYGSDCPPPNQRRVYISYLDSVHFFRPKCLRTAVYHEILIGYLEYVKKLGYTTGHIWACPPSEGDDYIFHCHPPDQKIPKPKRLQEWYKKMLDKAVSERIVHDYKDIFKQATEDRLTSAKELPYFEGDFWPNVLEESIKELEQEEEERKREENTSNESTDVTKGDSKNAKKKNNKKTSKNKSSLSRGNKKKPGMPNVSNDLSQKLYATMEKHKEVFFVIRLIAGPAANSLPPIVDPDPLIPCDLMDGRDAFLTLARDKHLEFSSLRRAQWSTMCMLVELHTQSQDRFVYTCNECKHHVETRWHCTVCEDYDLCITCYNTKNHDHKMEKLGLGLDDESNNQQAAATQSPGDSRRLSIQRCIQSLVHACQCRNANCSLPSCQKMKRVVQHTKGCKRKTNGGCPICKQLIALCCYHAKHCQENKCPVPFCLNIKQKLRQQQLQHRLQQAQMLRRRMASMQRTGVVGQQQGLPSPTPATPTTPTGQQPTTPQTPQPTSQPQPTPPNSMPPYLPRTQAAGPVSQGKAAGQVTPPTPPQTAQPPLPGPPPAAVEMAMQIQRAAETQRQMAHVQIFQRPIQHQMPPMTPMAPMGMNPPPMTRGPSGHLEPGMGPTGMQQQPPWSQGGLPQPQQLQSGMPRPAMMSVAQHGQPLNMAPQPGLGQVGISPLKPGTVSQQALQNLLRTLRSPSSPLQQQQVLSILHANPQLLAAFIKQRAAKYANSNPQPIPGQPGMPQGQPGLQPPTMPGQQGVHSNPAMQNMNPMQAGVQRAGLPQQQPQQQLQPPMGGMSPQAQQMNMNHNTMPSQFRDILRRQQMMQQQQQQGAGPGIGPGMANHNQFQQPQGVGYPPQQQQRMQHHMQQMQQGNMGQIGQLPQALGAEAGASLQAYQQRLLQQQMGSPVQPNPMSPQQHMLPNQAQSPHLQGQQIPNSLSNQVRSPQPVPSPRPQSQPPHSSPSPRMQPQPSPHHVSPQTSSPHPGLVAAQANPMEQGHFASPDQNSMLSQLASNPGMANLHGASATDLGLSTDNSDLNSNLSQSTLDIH
CREBBP, sequence (Q92793 whole entry): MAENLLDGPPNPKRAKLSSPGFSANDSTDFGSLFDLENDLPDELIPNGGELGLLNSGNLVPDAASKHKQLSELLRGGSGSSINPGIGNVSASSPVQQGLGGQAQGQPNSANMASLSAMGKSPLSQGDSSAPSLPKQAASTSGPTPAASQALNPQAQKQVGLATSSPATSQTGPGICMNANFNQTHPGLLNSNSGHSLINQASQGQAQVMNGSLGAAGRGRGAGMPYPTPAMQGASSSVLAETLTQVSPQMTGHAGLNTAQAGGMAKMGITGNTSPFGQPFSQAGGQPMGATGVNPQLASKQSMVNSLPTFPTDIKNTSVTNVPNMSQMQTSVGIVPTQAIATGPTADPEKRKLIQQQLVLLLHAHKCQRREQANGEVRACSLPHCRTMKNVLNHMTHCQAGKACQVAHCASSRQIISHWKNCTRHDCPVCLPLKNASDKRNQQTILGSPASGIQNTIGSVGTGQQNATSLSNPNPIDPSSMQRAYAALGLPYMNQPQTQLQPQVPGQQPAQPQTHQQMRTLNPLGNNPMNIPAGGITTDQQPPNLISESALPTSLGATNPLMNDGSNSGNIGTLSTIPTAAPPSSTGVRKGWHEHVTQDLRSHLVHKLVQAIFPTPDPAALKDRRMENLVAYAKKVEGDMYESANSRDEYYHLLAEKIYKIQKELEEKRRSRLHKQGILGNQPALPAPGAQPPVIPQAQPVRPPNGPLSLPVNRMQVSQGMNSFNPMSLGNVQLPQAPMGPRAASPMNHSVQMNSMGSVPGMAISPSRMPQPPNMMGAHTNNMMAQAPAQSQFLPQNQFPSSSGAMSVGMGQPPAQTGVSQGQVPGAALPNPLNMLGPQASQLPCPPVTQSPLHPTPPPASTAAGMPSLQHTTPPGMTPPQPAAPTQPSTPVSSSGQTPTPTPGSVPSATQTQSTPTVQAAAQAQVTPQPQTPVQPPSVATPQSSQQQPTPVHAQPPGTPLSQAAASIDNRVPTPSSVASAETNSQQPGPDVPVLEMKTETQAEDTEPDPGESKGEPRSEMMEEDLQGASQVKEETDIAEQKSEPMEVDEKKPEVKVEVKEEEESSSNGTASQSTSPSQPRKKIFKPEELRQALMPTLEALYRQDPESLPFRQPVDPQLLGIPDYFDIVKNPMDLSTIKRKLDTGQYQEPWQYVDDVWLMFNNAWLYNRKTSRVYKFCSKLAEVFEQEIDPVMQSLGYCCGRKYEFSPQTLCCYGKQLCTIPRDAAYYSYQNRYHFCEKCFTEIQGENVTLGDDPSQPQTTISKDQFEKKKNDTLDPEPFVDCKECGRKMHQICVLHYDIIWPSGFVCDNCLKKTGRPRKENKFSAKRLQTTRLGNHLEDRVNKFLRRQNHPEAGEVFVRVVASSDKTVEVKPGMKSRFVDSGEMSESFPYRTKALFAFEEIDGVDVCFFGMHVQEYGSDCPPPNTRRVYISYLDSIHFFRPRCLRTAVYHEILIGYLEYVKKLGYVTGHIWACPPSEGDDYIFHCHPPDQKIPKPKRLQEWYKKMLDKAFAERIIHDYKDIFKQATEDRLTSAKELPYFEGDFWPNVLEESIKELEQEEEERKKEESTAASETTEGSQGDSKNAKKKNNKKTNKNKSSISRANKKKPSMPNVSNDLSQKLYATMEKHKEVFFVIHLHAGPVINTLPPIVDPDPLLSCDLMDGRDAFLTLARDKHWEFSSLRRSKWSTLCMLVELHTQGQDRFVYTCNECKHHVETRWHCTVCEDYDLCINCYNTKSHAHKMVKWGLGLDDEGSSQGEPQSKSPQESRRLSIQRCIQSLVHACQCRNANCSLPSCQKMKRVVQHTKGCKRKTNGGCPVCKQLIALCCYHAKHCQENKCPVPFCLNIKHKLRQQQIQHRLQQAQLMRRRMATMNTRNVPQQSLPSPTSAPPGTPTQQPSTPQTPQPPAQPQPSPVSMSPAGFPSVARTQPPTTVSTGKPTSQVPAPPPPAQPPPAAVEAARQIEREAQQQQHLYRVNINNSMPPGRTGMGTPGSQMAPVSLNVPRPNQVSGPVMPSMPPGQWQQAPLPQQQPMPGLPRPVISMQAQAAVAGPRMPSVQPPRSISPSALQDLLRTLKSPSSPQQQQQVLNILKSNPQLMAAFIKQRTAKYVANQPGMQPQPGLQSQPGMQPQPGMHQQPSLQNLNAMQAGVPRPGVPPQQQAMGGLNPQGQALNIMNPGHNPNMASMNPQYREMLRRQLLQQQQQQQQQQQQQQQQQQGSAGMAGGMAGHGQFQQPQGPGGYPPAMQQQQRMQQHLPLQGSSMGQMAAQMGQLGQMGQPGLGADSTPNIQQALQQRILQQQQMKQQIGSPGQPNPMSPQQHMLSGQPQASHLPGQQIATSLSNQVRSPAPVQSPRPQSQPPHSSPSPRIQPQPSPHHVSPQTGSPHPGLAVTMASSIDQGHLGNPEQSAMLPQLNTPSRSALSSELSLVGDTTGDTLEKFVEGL

Consider `COc1ccc(C2(C(=O)N3C[C@H](F)C[C@@H]3C(=O)Nc3cccc4[nH]ncc34)CCCCO2)cc1` (single isomer, unassigned) [Example 44], for which the 50% growth inhibitory concentration (GI50) – broadly, the concentration at which growth is held to half of that of the control – in the assay on TE-8 cells is 1740 nM; in the assay on LK2 cells it was 589 nM. The IC50 (usually the concentration at which inhibition is half-maximal) at EP300 came to 48 nM; against CREBBP it was 48 nM; in the assay with H3K27Ac it was 246 nM.

As to `COc1ccc(C2(C(=O)N3CCOCC(Cc4cccc5[nH]ncc45)C3)CCCC2)cc1` (single isomer, unassigned) [Example 108b, [6-(1H-Indazol-4-ylmethyl)-1,4-oxazepan-4-yl][1-(4-methoxyphenyl)cyclopentyl]methanone], the GI50 was 1160 nM with TE-8 cells and 1090 nM in the assay on LK2 cells. Moreover, the IC50 is 50 nM at EP300, 83 nM against CREBBP and 125 nM in the assay with H3K27Ac.

In the case of `COc1ccc(C2(C(=O)N3CCC[C@@H]3C(=O)Nc3cccc4[nH]ncc34)CCCC2)cc1` [Example 1, N-1H-Indazol-4-yl-1-{[1-(4-methoxyphenyl)cyclopentyl]carbonyl}-D-prolinamide], the values for the GI50 in the assay on TE-8 cells and in the assay with LK2 cells were 3410 nM and 2740 nM, respectively. The IC50 against EP300 came to 176 nM; against CREBBP, 218 nM.

Consider `COc1ccc(C2(C(=O)N3CCC[C@@H]3C(=O)Nc3ccc4[nH]c(=O)[nH]c4c3)CCCC2)cc1` [Example 19, l-{[1-(4-Methoxyphenyl)cyclopentyl]carbonyl}-N-(2-oxo-2,3-dihydro-1H-benzimidazol-5-yl)-D-prolinamide], for which the IC50 against EP300 turned out to be 171 nM; on CREBBP, 169 nM; in the assay with H3K27Ac, 1050 nM.

In the case of `COc1ccc(C2(C(=O)N3CCC[C@@H]3C(=O)Nc3ccc(O)c(Cl)c3)CCCC2)cc1` [Example 21, N-(3-Chloro-4-hydroxy-phenyl)-1-{[1-(4-methoxyphenyl)cyclopentyl]carbonyl}-D-prolinamide], the IC50 at EP300 stood at 130 nM; against CREBBP it was 36 nM; in the assay with H3K27Ac, 458 nM.

Turning to `COc1ccc(C2(C(=O)N3CCC[C@@H]3C(=O)Nc3ccn(C)n3)CCCC2)cc1` [Example 22, 1-{[1-(4-Methoxyphenyl)cyclopentyl]carbonyl}-N-(1-methyl-1H-pyrazol-3-yl)-D-prolinamide], the figures for the IC50 against EP300, on CREBBP and with H3K27Ac were 962 nM, 676 nM and 2250 nM, respectively.

With `COc1ccc(C2(C(=O)N3CCC[C@@H]3C(=O)Nc3ccc(OCCN4CCOCC4)cc3C#N)CCCC2)cc1` [Example 23, N-{2-Cyano-4-[2-(morpholin-4-yl)ethoxy]phenyl}-1-{[1-(4-methoxyphenyl)cyclopentyl]carbonyl}-D-prolinamide], the IC50 at EP300 stood at 101 nM; at CREBBP it was 171 nM; in the assay on H3K27Ac, 121 nM.

Take `COc1ccc(C2(C(=O)N3CCC[C@@H]3C(=O)Nc3ccc4[nH]ncc4c3)CCCC2)cc1` [Example 24, N-1H-Indazol-5-yl-1-{[1-(4-methoxyphenyl)cyclopentyl]carbonyl}-D-prolinamide]: the GI50 in the assay on TE-8 cells was determined as 4060 nM; with LK2 cells, 1620 nM. Moreover, the half-inhibitory concentration (IC50) on EP300 amounted to 254 nM; at CREBBP it was 128 nM; with H3K27Ac, 916 nM.

For `N#Cc1ccccc1NC(=O)[C@H]1C[C@@H](F)CN1C(=O)C1(c2ccc(C(=O)O)cc2)CCCC1` [Example 29, 4-[1-({(2R,4R)-2-[(2-Cyanophenyl)carbamoyl]-4-fluoropyrrolidin-1-yl}carbonyl)cyclopentyl] benzoic acid], the results for the IC50 against EP300, at CREBBP and with H3K27Ac were 20 nM, 125 nM and 474 nM, respectively.

`CNc1cccc(NC(=O)[C@H]2CCCN2C(=O)C2(c3ccc(OC)cc3)CCCC2)n1` [Example 30, 1-{[1-(4-Methoxyphenyl)cyclopentyl]carbonyl}-N-[6-(methylamino)pyridin-2-yl)-D-prolinamide]: the IC50 against EP300 came out at 182 nM; at CREBBP, 233 nM; in the assay with H3K27Ac, 577 nM.

As for `COc1ccc(C2(C(=O)N3C[C@](C)(O)C[C@@H]3C(=O)Nc3cccc4[nH]ncc34)CCCC2)cc1` [Example 31, (4R)-4-Hydroxy-N-1H-indazol-4-yl-1-{[1-(4-methoxyphenyl)cyclopentyl]carbonyl}-4-methyl-D-prolinamide], the IC50 on EP300 came to 364 nM; against CREBBP it was 652 nM; in the assay with H3K27Ac it was 1550 nM.

With `COc1ccc(C2(C(=O)N3CSC[C@@H]3C(=O)Nc3ccccc3C#N)CCCCC2)cc1` [Example 34, (4S)—N-(2-Cyanophenyl)-3-{[1-(4-methoxyphenyl)cyclohexyl]carbonyl}-1,3-thiazolidine-4-carboxamide], the IC50 against EP300 came out at 40 nM; against CREBBP it was 39 nM; with H3K27Ac, 307 nM.

Regarding `O=C(NS(=O)(=O)C1CC1)c1ccc(C2(C(=O)N3C[C@H](F)C[C@@H]3C(=O)Nc3cccc4[nH]ncc34)CCCCC2)cc1` [Example 36, (4R)-1-[(1-{4-[(Cyclopropylsulfonyl)carbamoyl]phenyl}cyclohexyl)carbonyl]-4-fluoro-N-1H-indazol-4-yl-D-prolinamide], the results for the IC50 at EP300, at CREBBP and in the assay with H3K27Ac were 17 nM, 23 nM and above 10000 nM, respectively.

As to `COc1ccc(C2(C(=O)N3CS(=O)(=O)C[C@@H]3C(=O)Nc3ccc4[nH]ncc4n3)CCCCC2)cc1` [Example 40, (4S)-3-{[1-(4-Methoxyphenyl)cyclohexyl]carbonyl}-N-(1H-pyrazolo[4,3-b]pyridin-5-yl)-1,3-thiazolidin-4-carboxamide 1,1-dioxide], the 50% inhibitory concentration (IC50) came to 22 nM at EP300, 29 nM at CREBBP and 27 nM in the assay on H3K27Ac.

For `COc1ccc(C2(C(=O)N3CCC[C@@H]3C(=O)Nc3cccc4[nH]ncc34)CCC2)cc1` [Example 53, N-1H-Indazol-4-yl-1-{[1-(4-methoxyphenyl)cyclobutyl]carbonyl}-D-prolinamide], the values for the GI50 in the assay on TE-8 cells and in the assay with LK2 cells were 6060 nM and 2640 nM, respectively. In the assay with H3K27Ac, the concentration for half-maximal inhibition (IC50) was found to be 2080 nM.

`COc1ccc(C2(C(=O)N3C[C@H](F)C[C@@H]3C(=O)Nc3ccc4c(n3)NC(=O)CO4)CCCCC2)cc1` [Example 67, (4R)-4-Fluoro-1-{[1-(4-methoxyphenyl)cyclohexyl]carbonyl}-N-(3-oxo-3,4-dihydro-2H-pyrido[3,2-b][1,4]oxazin-6-yl)-D-prolinamide]: the IC50 at EP300 worked out at 397 nM; against CREBBP, 678 nM; in the assay with H3K27Ac, 2410 nM.
